Experimental data taken from patent US12180187B2, “1-phenyl-5-azinylpyrazolyl-3-oxyalkyl acids and their use for controlling unwanted plant growth” (BAYER AKTIENGESELLSCHAFT, priority 2019, dated 2024).

Assays:
SETVI = experiment: Pre-emergence action against SETVI, 1280 g/ha; assay type: in vivo, Setaria viridis; details: visual scoring after about 3 weeks vs untreated controls, 100% = plants have died, 0% = like control plants
Source text: (§1) 1. Pre-Emergence Herbicidal Effect and Crop Plant Compatibility a) Seeds of mono- and dicotyledonous weed plants are placed in plastic pots in sandy loam soil (doubly sown with one species each of mono- or dicotyledonous weed plants per pot) and covered with soil. The compounds of the invention, formulated in the form of wettable powders (WP) or as emulsion concentrates (EC), are then applied onto the surface of the covering soil as aqueous suspension or emulsion with addition of 0.5% additive at a water application rate equivalent to 600 litres per hectare. After the treatment, the pots are placed in a greenhouse and kept under good growth conditions for the trial plants. After about 3 weeks, the effect of the preparations is scored visually in comparison with untreated controls as percentages. For example, 100% activity=the plants have died, 0% activity=like control plants. 1. Pre-Emergence Effectiveness Tables 1 to 12 below show the effects of selected compounds of the general formula (I) according to Tables 1 and 2 on various harmful plants and at an application rate corresponding to 1280 g/ha, which were obtained by the experimental procedure mentioned above.

POAAN [1] = experiment: Pre-emergence action against POAAN, 1280 g/ha; assay type: in vivo, Poa annua; details: visual scoring after about 3 weeks vs untreated controls, 100% = plants have died, 0% = like control plants
Source text: as §1

ABUTH = experiment: Post-emergence action against ABUTH, 1.28 kg/ha; assay type: in vivo, Abutilon theophrasti; details: dosage 1280 g/ha, visual rating about 3 weeks after treatment vs untreated controls (100% = plants died)
Protocol: (§2) • a) Seeds of mono- and dicotyledonous weed plants are placed in plastic pots in sandy loam soil (twin sowing with one species each of mono- or dicotyledonous weed plants per pot), covered with soil and cultivated in a greenhouse under controlled growth conditions. 2 to 3 weeks after sowing, the test plants are treated at the one-leaf stage. The compounds of the invention, formulated in the form of wettable powders (WP) or as emulsion concentrates (EC), are applied to the green parts of the plants as aqueous suspension or emulsion with addition of 0.5% additive at a water application rate equivalent to 600 litres per hectare. After the test plants have been kept in the greenhouse under optimum growth conditions for about 3 weeks, the activity of the preparations is rated visually in comparison to untreated controls. For example, 100% activity=the plants have died, 0% activity=like control plants. As shown by the results, compounds of the general formula (I) of the invention, in post-emergence treatment, have very good herbicidal efficacy (90% to 100% herbicidal action) against harmful plants such as Abutilon theophrasti, Digitaria sanguinalis, Echinochloa crus-galli, Matricaria inodora, Poa annua, at an application rate of 1.28 kg of active substance per hectare.

ECHCG [2] = experiment: Pre-emergence action against ECHCG, 1280 g/ha; assay type: in vivo, Echinochloa crus-galli; details: visual scoring after about 3 weeks vs untreated controls, 100% = plants have died, 0% = like control plants
Source text: as §1

MATIN [3] = experiment: Pre-emergence action against MATIN, 1280 g/ha; assay type: in vivo, Tripleurospermum inodorum (Matricaria inodora); details: scored visually after about 3 weeks vs untreated controls (100% = plants have died)
Source text: as §1

VERPE [4] = experiment: Pre-emergence action against VERPE, 1280 g/ha; assay type: in vivo, Veronica persica; details: scored visually after about 3 weeks vs untreated controls (100% = plants have died)
Source text: as §1

AMARE [5] = experiment: Post-emergence action against AMARE, 1.28 kg/ha; assay type: in vivo, Amaranthus retroflexus; details: dosage 1280 g/ha, visual rating about 3 weeks after treatment vs untreated controls (100% = plants died)
Protocol: as §2

DIGSA [6] = experiment: Pre-emergence action against DIGSA, 1280 g/ha; assay type: in vivo, Digitaria sanguinalis; details: visual scoring after about 3 weeks vs untreated controls, 100% = plants have died, 0% = like control plants
Source text: as §1

LOLRI = experiment: Pre-emergence action against LOLRI, 1280 g/ha; assay type: in vivo, Lolium rigidum; details: visual scoring after about 3 weeks vs untreated controls, 100% = plants have died, 0% = like control plants
Source text: as §1

STEME [7] = experiment: Pre-emergence action against STEME, 1280 g/ha; assay type: in vivo, Stellaria media; details: scored visually after about 3 weeks vs untreated controls (100% = plants have died)
Source text: as §1

AMARE [8] = experiment: Pre-emergence action against AMARE, 1280 g/ha; assay type: in vivo, Amaranthus retroflexus; details: scored visually after about 3 weeks vs untreated controls (100% = plants have died)
Source text: as §1

ECHCG [9] = experiment: Post-emergence action against ECHCG, 1.28 kg/ha; assay type: in vivo, Echinochloa crus-galli; details: dosage 1280 g/ha, visual rating about 3 weeks after treatment vs untreated controls
Protocol: as §2

POAAN [10] = experiment: Post-emergence action against POAAN, 1.28 kg/ha; assay type: in vivo, Poa annua; details: dosage 1280 g/ha, visual rating about 3 weeks after treatment vs untreated controls
Protocol: as §2

MATIN [11] = experiment: Post-emergence action against MATIN, 1.28 kg/ha; assay type: in vivo, Tripleurospermum inodorum (Matricaria inodora); details: dosage 1280 g/ha, visual rating about 3 weeks after treatment vs untreated controls (100% = plants died)
Protocol: as §2

VERPE [12] = experiment: Post-emergence action against VERPE, 1.28 kg/ha; assay type: in vivo, Veronica persica; details: dosage 1280 g/ha, visual rating about 3 weeks after treatment vs untreated controls (100% = plants died)
Protocol: as §2

ALOMY [13] = experiment: Post-emergence action against ALOMY, 1.28 kg/ha; assay type: in vivo, Alopecurus myosuroides; details: dosage 1280 g/ha, visual rating about 3 weeks after treatment vs untreated controls
Protocol: as §2

VIOTR = experiment: Pre-emergence action at 320 g/ha against VIOTR; assay type: in vivo, Viola tricolor; details: dosage 320 g/ha
Source text: (§3) b) Seeds of monocotyledonous and dicotyledonous weed plants and crop plants are placed in plastic or organic planting pots and covered with soil. The compounds of the invention, formulated in the form of wettable powders (WP) or as emulsion concentrates (EC), are then applied onto the surface of the covering soil as aqueous suspension or emulsion with addition of 0.5% additive at a water application rate of 600 l/ha (converted). After the treatment, the pots are placed in a greenhouse and kept under good growth conditions for the trial plants. After about 3 weeks, the effect of the preparations is scored visually in comparison with untreated controls as percentages. For example, 100% activity=the plants have died, 0% activity=like control plants. Tables 13 to 26 below show the effects of selected compounds of the general formula (I) on various harmful plants and at an application rate corresponding to 320 g/ha, which were obtained by the experimental procedure mentioned above.

DIGSA [14] = experiment: Post-emergence action against DIGSA, 1.28 kg/ha; assay type: in vivo, Digitaria sanguinalis; details: dosage 1280 g/ha, visual rating about 3 weeks after treatment vs untreated controls
Protocol: as §2

ALOMY [15] = experiment: Pre-emergence action against ALOMY, 1280 g/ha; assay type: in vivo, Alopecurus myosuroides; details: visual scoring after about 3 weeks vs untreated controls, 100% = plants have died, 0% = like control plants
Source text: as §1

ALOMY [16] = experiment: Pre-emergence action at 320 g/ha against ALOMY; assay type: in vivo, Alopecurus myosuroides; details: scored visually after about 3 weeks vs untreated controls (100% = plants have died)
Source text: as §3

AMARE [17] = experiment: Pre-emergence action at 320 g/ha against AMARE; assay type: in vivo, Amaranthus retroflexus; details: visual scoring after about 3 weeks vs untreated controls
Source text: as §3

POLCO = experiment: Pre-emergence action at 320 g/ha against POLCO; assay type: in vivo, Fallopia convolvulus (Polygonum convolvulus); details: visual scoring after about 3 weeks vs untreated controls
Source text: as §3

STEME [18] = experiment: Post-emergence action against STEME, 1.28 kg/ha; assay type: in vivo, Stellaria media; details: dosage 1280 g/ha, visual rating about 3 weeks after treatment vs untreated controls (100% = plants died)
Protocol: as §2

Row | Structure (SMILES) | Pre-emergence action against SETVI (SETVI) | Pre-emergence action against POAAN (POAAN [1]) | Post-emergence action against ABUTH (ABUTH) | Pre-emergence action against ECHCG (ECHCG [2]) | Pre-emergence action against MATIN (MATIN [3]) | Pre-emergence action against VERPE (VERPE [4]) | Post-emergence action against AMARE (AMARE [5]) | Pre-emergence action against DIGSA (DIGSA [6]) | Pre-emergence action against LOLRI (LOLRI) | Pre-emergence action against STEME (STEME [7]) | Pre-emergence action against AMARE (AMARE [8]) | Post-emergence action against ECHCG (ECHCG [9]) | Post-emergence action against POAAN (POAAN [10]) | Post-emergence action against MATIN (MATIN [11]) | Post-emergence action against VERPE (VERPE [12]) | Post-emergence action against ALOMY (ALOMY [13]) | Pre-emergence action against ALOMY (ALOMY [15]) | further results
1 | O=C(O)COc1nn(-c2ccccc2F)c(-c2cnccn2)c1Br [Example I-003] | 90% | 100% | 90% | 90% | 90% | 90% | 100% | 90% | 90% | 100% | 90% | 90% | 100% | 90% | 90% | – | – | –
2 | CCOC(=O)COc1nn(-c2ccccc2F)c(-c2cnccn2)c1Br [Example I-004] | 100% | 100% | 90% | 90% | 90% | 90% | 90% | 90% | 90% | 100% | 100% | 90% | – | – | 100% | 100% | – | –
3 | COC(=O)C1CCCN(C(=O)COc2nn(-c3ccccc3F)c(-c3ccc(F)nc3)c2Br)C1 (stereo not shown) [Example X-018] | – | – | – | – | – | – | – | – | – | – | – | – | – | – | – | – | – | Pre-emergence action against VIOTR in % (VIOTR): 90%
4 | CONC(=O)COc1nn(-c2ccccc2F)c(-c2ccc(F)cn2)c1Br [II-003] | 100% | 100% | 90% | 100% | 100% | – | – | 100% | 100% | 90% | 100% | – | 100% | 90% | 100% | 100% | – | –
5 | CCOC(=O)COc1nn(-c2ccccc2F)c(-c2ccc(F)cn2)c1Br [II-014] | 90% | 100% | 90% | 100% | 100% | 100% | 90% | 100% | 100% | 90% | 90% | – | 90% | 90% | 90% | – | 100% | Post-emergence action against DIGSA (DIGSA [14]): 90%
6 | CCOC(=O)COc1nn(-c2ccccc2F)c(-c2ccc([S+](C)[O-])nc2)c1Br (stereo not shown) [VII-044] | – | – | – | – | – | – | – | – | – | – | – | – | – | – | – | – | – | Pre-emergence action at 320 g/ha against ALOMY in % (ALOMY [16]): 90%; Pre-emergence action against AMARE in % (AMARE [17]): 90%; Pre-emergence action against POLCO in % (POLCO): 100%; Pre-emergence action against VIOTR in % (VIOTR): 100%
7 | CSc1ccc(-c2c(Br)c(OCC(=O)O)nn2-c2ccccc2F)cn1 [VII-047] | – | – | – | – | – | – | – | – | – | – | – | – | – | – | – | – | – | Pre-emergence action against AMARE in % (AMARE [17]): 90%
8 | COC(=O)COc1nn(-c2cc(F)ccc2F)c(-c2ccc(F)nc2)c1C#N [VII-063] | 100% | 100% | – | – | 90% | 100% | 100% | 100% | 100% | 100% | 100% | – | 100% | 90% | 90% | 100% | 100% | Post-emergence action against STEME (STEME [18]): 100%
9 | O=C(COc1nn(-c2ccccc2F)c(-c2ccc(F)nc2)c1Br)OCc1ccco1 [VII-098] | 100% | 100% | 90% | 100% | 90% | 100% | – | 100% | 100% | 100% | 100% | 90% | 100% | 100% | 90% | 100% | 100% | Post-emergence action against DIGSA (DIGSA [14]): 100%
10 | COC(=O)COc1nn(-c2ccccc2F)c(-c2ccc(F)nc2)c1SC [VII-123] | – | 100% | 90% | – | 100% | 90% | 90% | 100% | 90% | 90% | 90% | 100% | 100% | 90% | 90% | 90% | – | –
11 | CS(=O)(=O)NC(=O)COc1nn(-c2ccccc2F)c(-c2ccnc(F)c2)c1Br [VIII-012] | 100% | 100% | – | 100% | 100% | 100% | 100% | 100% | 100% | – | 100% | 100% | 100% | 100% | 90% | 100% | 100% | Post-emergence action against DIGSA (DIGSA [14]): 100%; Post-emergence action against STEME (STEME [18]): 90%
